Here are results for three molecules from PMC7696940, “Effects of Rationally Designed Physico-Chemical Variants of the Peptide PuroA on Biocidal Activity towards Bacterial and Mammalian Cells” (International Journal of Molecular Sciences, 2020).

In brackets after ≈: the same amount, converted by molar mass. Where no end group is shown, it is not given here.

The test system of data set [1] is S. aureus ATCC25923. It is filed as cell-based, Staphylococcus aureus. Particulars: MHB; for MIC S. aureus, No NaCl: 0 mM NaCl; for MIC S. aureus, No NaCl / MIC S. aureus, With 50mM NaCl / MIC S. aureus, With 100mM NaCl / MIC S. aureus, With 150mM NaCl: triplicate, mode; for MIC S. aureus ATCC25923: 37 °C overnight, A595, mode of three independent experiments. The procedure: (§1) The activity of peptides was determined against the Gram-positive Staphylococcus aureus (ATCC 25923), and the Gram-negative Escherichia coli (ATCC 25922) and Pseudomonas aeruginosa (ATCC 9027) bacteria. Selected peptides were also tested against two clinical isolates of methicillin-resistant Staphylococcus aureus (MRSA), M173525 and M180920, kindly provided by Dr P. B. Ward (Microbiology Department, Austin and Repatriation Medical Centre, Heidelberg West, Victoria, Australia). The Minimum inhibitory concentration (MIC) of peptides was determined by the microtitre broth dilution method, as described in Phillips et al.. Briefly, bacteria were grown in Mueller-Hinton Broth (MHB) at 37 °C overnight with shaking (200 rpm). The cultures were adjusted to 0.5 McFarland turbidity standard (approximately 1 × 10^8 colony forming units (CFU)/mL), then diluted 1:100 in MHB (1 × 10^6 CFU/mL). A total of 75 μL of these suspensions were mixed with 25 μL of peptide solutions (final concentrations 250 to 0.5 μg/mL) and the microtitre plates incubated overnight at 37 °C. Positive growth controls (inoculum and MHB, with no peptide) and sterility controls (0.01% glacial acetic) were also included. Post-incubations, the absorbance of cultures at 595 nm was measured using a microplate reader (POLARstar Omega, Germany). […] To evaluate salt sensitivity of peptides up to physiological levels (150 mM NaCl), overnight cultures of S. aureus and E. coli adjusted to 0.5 McFarland turbidity standard were diluted 1:100 in MHB containing 0, 50, 100 or 150 mM NaCl, and the MICs of peptides determined as above. All tests were conducted in triplicate. The results are shown as the mode of values obtained.

In data set [2] the test system is porcine trypsin and proteinase K. The data set is described as follows: Proteases stability assay. Particulars: 1000 µg peptide with 50 µg protease (20:1 w/w), porcine trypsin or proteinase K, PBS pH 7.4, 37 °C, 3 h; read-out activity of supernatant on E. coli and S. aureus; triplicate. In kind it is in vitro ADME, porcine; Tritirachium album. The procedure:
The effect of two well-studied proteases, porcine trypsin and proteinase K from Tritirachium album, on the activity of peptides was investigated as per Carmona et al.. Briefly, 1000 µg of a peptide was incubated with 50 µg of a protease (20:1 w/w) at 37 °C for 3 h in phosphate buffered saline PBS (pH 7.4). The enzyme activity was then terminated by heating (70 °C, 5 min) and the samples centrifuged at 12,000× g. The activity of the supernatant on E. coli and S. aureus was tested as above, in triplicate.

Data set [3] has as its system E. coli ATCC25922. It is filed as cell-based, Escherichia coli. As to conditions: MHB; for MIC E. coli, No NaCl: 0 mM NaCl; for MIC E. coli, No NaCl / MIC E. coli, With 50mM NaCl / MIC E. coli, With 100mM NaCl / MIC E. coli, With 150mM NaCl: triplicate, mode; for MIC E. coli ATCC25922: 37 °C overnight, A595, mode of three independent experiments. The procedure: as §1

For data set [4], the system named is HeLa cells. It is filed as cell-based, human. Particulars: MTT, 24 h, peptide up to 250 µg/mL; concentration causing 50% cell growth inhibition; mean of triplicate assays. On the procedure:
(§2) Cytotoxicity to human cervical carcinoma HeLa cells and mouse fibroblastic NIH-3T3 cells was determined using the MTT assay as per Scudiero et al. with minor modifications. The cells were maintained in Dulbecco’s Modified Eagle Medium (DMEM) with 10% foetal bovine serum (FBS) and 1% penicillin G in a humidified incubator (Heraeus Hera Cell incubator) at 37 °C with 5% CO2. They were seeded in 96-well microtiter plates at 1 × 10^4 cells/well and allowed to adhere for 24 h in the incubator. The medium was removed, and adherent cells were washed with PBS. Fresh media containing serially diluted peptides in PBS (final concentrations 4 to 250 µg/mL) were added and the cells incubated for 24 h. Cells without peptides were used as negative controls. Following incubations, the medium was removed, and adherent cells were washed with PBS. 150 µL of MTT (diluted to 0.33 mg/mL in DMEM) and the plates incubated for 3 h. The precipitated formazan was dissolved in 100 µL of DMSO and its absorbance measured at 570 nm. Cell viability was determined as: (OD570 nm peptide treated cells/(OD570 nm untreated cells) × 100. Positive cytotoxicity was defined as peptide concentration that causes 50% growth inhibition in a cell line (IC50). All tests were carried out in triplicate.

Data set [5] has as its system E. coli and S. aureus. The data set is described as follows: Salt tolerance (MICs under 0-150 mM NaCl, summary). In kind it is cell-based, Escherichia coli; Staphylococcus aureus. Also on record: key: Up to 50 mM: no effects on antibacterial activity up to 50 mM NaCl but increase in the MICs for E. coli and S. aureus at 100 mM NaCl; Intolerant: not resistant to salt effects even at 50 mM NaCl; Up to 150 mM: no effects on antibacterial activity up to 150 mM NaCl. Particulars: MICs for E. coli and S. aureus in MHB with 0, 50, 100 or 150 mM NaCl. On the procedure:
as §1

The subject of data set [6] is NIH-3T3 cells. Put plainly: Cytotoxicity, MTT assay. It is filed as cell-based, mouse. As to conditions: 24 h; for IC50 NIH-3T3: peptide up to 250 µg/mL, concentration causing 50% cell growth inhibition, mean of triplicate assays; for Cytotoxicity to NIH-3T3 mouse fibroblasts (in words): up to 250 µg/mL. On the procedure:
as §2
(In general: Tetrazolium dyes change colour on reduction, which living cells bring about.)

Data set [7] relates to pBlueScript SK+ plasmid DNA. The data set is described as follows: In vitro DNA-binding assay (gel retardation). As to conditions: 100 ng pBlueScript SK+, peptide 8-500 µg/mL, 1 h room temperature, 1% agarose. The procedure:
The ability of peptides to bind to purified DNA (indicative of in vivo DNA binding potential) was tested by the modified gel retardation assay developed by Alfred et al.. The DNA of pBlueScript SK+ (100 ng) was incubated with peptides (to final concentrations of 8, 16, 32, 64, 125, 250 or 500 µg/mL) in 15 µL volumes made with sterile MilliQ water, the held at room temperature for 1h. Loading dye was added to each sample and the samples electrophoresed on 1% agarose gels. The gels were then immersed in ethidium bromide ([…]) then visualized and imaged

Data set [8] relates to C. albicans FRR 5580. It is filed as cell-based, Candida albicans. As to conditions: PDB, overnight; mode of three independent experiments. On the procedure:
The assay was carried out as per Alfred et al.. Candida albicans (FRR 5580) was grown in potato dextrose broth (PDB; Difco-BD, Bergen County, NJ, USA) overnight at 30 °C with shaking (200 rpm) until exponential phase, then adjusted to 0.5 McFarland turbidity standard (approximately 1 × 10^6 cells/mL) and diluted 1:200 with PDB to 0.5 − 2 × 10^3 cells/mL. Peptides in 25 μL volumes were mixed with 75 μL of the yeast suspensions. The controls were included as above. The plates were incubated overnight and absorbance was recorded. All the tests were conducted in triplicate.

The subject of data set [9] is P. aeruginosa ATCC9027. It is filed as cell-based, Pseudomonas aeruginosa. Particulars: MHB, 37 °C overnight, A595; mode of three independent experiments. The procedure: as §1

Turning to `CC(C)[C@@H]1NC(=O)[C@@H]2CCCN2C(=O)[C@H](Cc2ccccc2)NC(=O)CNC(=O)[C@H](CCCCN)NC(=O)[C@H](Cc2c[nH]c3ccccc23)NC(=O)[C@H](Cc2c[nH]c3ccccc23)NC(=O)[C@H](CCCCN)NC(=O)[C@H](Cc2c[nH]c3ccccc23)NC(=O)[C@H](Cc2c[nH]c3ccccc23)NC(=O)[C@H](CCCNC(=N)N)NC(=O)[C@H](Cc2c[nH]c3ccccc23)NC(=O)[C@H]([C@@H](C)O)NC1=O` [Cyclic PuroA], in data set [1], the “MIC S. aureus, No NaCl” value was 125 µg/mL (≈ 67.7 µM); the “MIC S. aureus, With 50mM NaCl” value is 250 µg/mL (≈ 135 µM); the “MIC S. aureus, With 100mM NaCl” value was found to be 250 µg/mL (≈ 135 µM); the “MIC S. aureus, With 150mM NaCl” value was above 250 µg/mL. Further, in [1], the “MIC S. aureus ATCC25923” value was 125 µg/mL (≈ 67.7 µM). In addition, in data set [2], the “Protease Stability” value is “Unstable”. Also, in data set [3], the “MIC E. coli, No NaCl” value was found to be 250 µg/mL (≈ 135 µM); the “MIC E. coli, With 50mM NaCl” value was above 250 µg/mL; the “MIC E. coli, With 100mM NaCl” value was above 250 µg/mL; the “MIC E. coli, With 150mM NaCl” value was above 250 µg/mL. Also, the “MIC E. coli ATCC25922” value in data set [3] came to 250 µg/mL (≈ 135 µM). Also, the “IC50 HeLa” value in data set [4] is above 250 µg/mL. The “Salt Tolerance” value in [5] was “Intolerant”. Besides, in data set [6], the “IC50 NIH-3T3” value was above 250 µg/mL and the “Cytotoxicity to NIH-3T3 mouse fibroblasts (in words)” value was “no cytotoxicity”. In addition, the “Binding to DNA in vitro (concentration inhibiting plasmid migration)” value in data set [7] is given as at least 64 µg/mL. Moreover, in [7] (listed as cyclized PuroA), the “Binding to DNA in vitro (concentration inhibiting plasmid migration)” value stood at 64 µg/mL. The “MIC C. albicans FRR 5580” value in data set [8] is above 250 µg/mL. Further, in data set [9], the “MIC P. aeruginosa ATCC9027” value was above 250 µg/mL.

Turning to RRRRWRWWRWWRR-NH2 [Peptide R8], in data set [1], the “MIC S. aureus, No NaCl” value was determined as 64 µg/mL; the “MIC S. aureus, With 50mM NaCl” value stood at 64 µg/mL; the “MIC S. aureus, With 100mM NaCl” value stood at 64 µg/mL; the “MIC S. aureus, With 150mM NaCl” value came out at 64 µg/mL. Moreover, the “Protease Stability” value in data set [2] is recorded as “Unstable”. Besides, in data set [3], the “MIC E. coli, No NaCl” value is 64 µg/mL; the “MIC E. coli, With 50mM NaCl” value is 64 µg/mL; the “MIC E. coli, With 100mM NaCl” value turned out to be 64 µg/mL; the “MIC E. coli, With 150mM NaCl” value came out at 64 µg/mL. Also, in [4], the “IC50 HeLa” value was determined as 250 µg/mL. For the same molecule, the “Salt Tolerance” value in data set [5] is “Up to 150 mM”. For the same molecule, in data set [6], the “IC50 NIH-3T3” value is above 250 µg/mL and the “Cytotoxicity to NIH-3T3 mouse fibroblasts (in words)” value was “no cytotoxicity”. Further, in data set [7], the “Binding to DNA in vitro (concentration inhibiting plasmid migration)” value is given as at least 64 µg/mL. The “MIC C. albicans FRR 5580” value in [8] was 250 µg/mL. For the same molecule, in data set [9], the “MIC P. aeruginosa ATCC9027” value was found to be 64 µg/mL.

With “WRWWKWW-NH2 [dW7, diastereomeric counterpart of W7]”, in data set [1], the “MIC S. aureus, No NaCl” value turned out to be 8 µg/mL; the “MIC S. aureus, With 50mM NaCl” value is 8 µg/mL; the “MIC S. aureus, With 100mM NaCl” value worked out at 8 µg/mL; the “MIC S. aureus, With 150mM NaCl” value is 8 µg/mL. Moreover, the “MIC S. aureus ATCC25923” value in data set [1] stood at 8 µg/mL. Further, in data set [3], the “MIC E. coli, No NaCl” value stood at 8 µg/mL; the “MIC E. coli, With 50mM NaCl” value came out at 8 µg/mL; the “MIC E. coli, With 100mM NaCl” value came out at 8 µg/mL; the “MIC E. coli, With 150mM NaCl” value turned out to be 8 µg/mL. The “MIC E. coli ATCC25922” value in [3] was 8 µg/mL. The “IC50 HeLa” value in data set [4] came out at 125 µg/mL. The “Salt Tolerance” value in data set [5] is listed as “Up to 150 mM”. Moreover, in data set [6], the “IC50 NIH-3T3” value is above 250 µg/mL. Further, in data set [7], the “Binding to DNA in vitro (concentration inhibiting plasmid migration)” value is at least 32 µg/mL. Besides, the “MIC C. albicans FRR 5580” value in data set [8] turned out to be 64 µg/mL. Also, the “MIC P. aeruginosa ATCC9027” value in data set [9] was determined as 16 µg/mL.
